From patent US4386077A (Made Italiana s.r.l, priority 1981, dated 1983)

Legend:
[1] = Cumulative urinary elimination in Cynomolgus monkeys; assay type: in vivo, Cynomolgus monkey
Experimental: (§1) Blood was collected at the following time: 0 (basal values) and 5, 10, 15, 30, 60 minutes, 2, 4, 7, 24 and 30 hours after the administration. From the end of the curves serum concentration/time, it was possible to calculate the constant of the apparent elimination speed from the organism as well as the relative half-life. These values were utilized in calculating the AUC T30 hours →T.infin. for the total of the curves concentration/time in the same animal. The AUC To →T30 hrs was calculated by means of the trapezium methods. […] For each dosage, a randomized cross-over procedure was used. Seriated blood samples were collected until 30 hours after each administration. From the single curves concentration/time it was possible to calculate the AUC To →T30 hrs. After each administration, including the intravenous one, urine was collected at the following time intervals: 0-24 hours, 24-48 hours and 48-72 hours.

[2] = oral, compound as such; cited from earlier work
[3] = Serum kinetics and absolute bioavailability of ^14 C-labelled CDP-choline and "ASONIC" after i.v. and oral administration in Cynomolgus monkeys; assay type: in vivo, Cynomolgus monkey; conditions: average and S.D. of 2 monkeys
Experimental: as §1, with “From” for “Blood was collected at the following time: 0 (basal values) and 5, 10, 15, 30, 60 minutes, 2, 4, 7, 24 and 30 hours after the administration. From”

Question: For C[N+](C)(C)CCOP(=O)(O)OP(=O)([O-])OC[C@H]1O[C@@H](n2ccc(N)nc2=O)[C@H](O)[C@@H]1O [CDP-choline, cytidine diphosphocholine], which Cumulative urinary elimination ([1]; average and S.D. of 2 monkeys, 25 mg/kg i.v., 0-24 hr) is on record?
Answer: 50.65 ± 2.33 % OF THE ADMINISTERED DOSE

Question: What about the Cumulative urinary elimination ([1]; average and S.D. of 2 monkeys, 25 mg/kg i.v., 0-72 hr) of the same compound?
Answer: 53.5 ± 3.25 % OF THE ADMINISTERED DOSE

Question: What about the Cumulative urinary elimination ([1]; average and S.D. of 2 monkeys, 25 mg/kg i.v., 24-48 hr) of the same compound?
Answer: 2.5 ± 0.99 % OF THE ADMINISTERED DOSE

Question: And the Cumulative urinary elimination ([1]; average and S.D. of 2 monkeys, 25 mg/kg i.v., 48-72 hr)?
Answer: 0.35 ± 0.07 % OF THE ADMINISTERED DOSE

Question: And the Cumulative urinary elimination ([1]; average and S.D. of 2 monkeys, 200 mg/kg per os, 0-24 hr)?
Answer: 42.75 ± 6.15 % OF THE ADMINISTERED DOSE

Question: What about the Cumulative urinary elimination ([1]; average and S.D. of 2 monkeys, 200 mg/kg per os, 0-72 hr) of the same compound?
Answer: 47.5 ± 3.11 % OF THE ADMINISTERED DOSE

Question: What about the Cumulative urinary elimination ([1]; average and S.D. of 2 monkeys, 200 mg/kg per os, 24-48 hr) of the same compound?
Answer: 4.2 ± 2.83 % OF THE ADMINISTERED DOSE

Question: And the Cumulative urinary elimination ([1]; average and S.D. of 2 monkeys, 200 mg/kg per os, 48-72 hr)?
Answer: 0.55 ± 0.21 % OF THE ADMINISTERED DOSE

Question: What about the Cumulative urinary elimination ([1]; average and S.D. of 2 monkeys, 400 mg/kg per os, 0-24 hr) of the same compound?
Answer: 31.3 ± 9.3 % OF THE ADMINISTERED DOSE

Question: And the Cumulative urinary elimination ([1]; average and S.D. of 2 monkeys, 400 mg/kg per os, 0-72 hr)?
Answer: 37.65 ± 8.98 % OF THE ADMINISTERED DOSE

Question: What about the Cumulative urinary elimination ([1]; average and S.D. of 2 monkeys, 400 mg/kg per os, 24-48 hr) of the same compound?
Answer: 5.6 ± 0.56 % OF THE ADMINISTERED DOSE

Question: What about the Cumulative urinary elimination ([1]; average and S.D. of 2 monkeys, 400 mg/kg per os, 48-72 hr) of the same compound?
Answer: 0.75 ± 0.21 % OF THE ADMINISTERED DOSE

Question: What about the Cumulative urinary elimination ([1]; monkey no. 1, 25 mg/kg i.v., 0-24 hr) of the same compound?
Answer: 49 % OF THE ADMINISTERED DOSE

Question: And the Cumulative urinary elimination ([1]; monkey no. 1, 25 mg/kg i.v., 0-72 hr)?
Answer: 51.2 % OF THE ADMINISTERED DOSE

Question: What about the Cumulative urinary elimination ([1]; monkey no. 1, 25 mg/kg i.v., 24-48 hr) of the same compound?
Answer: 1.8 % OF THE ADMINISTERED DOSE

Question: And the Cumulative urinary elimination ([1]; monkey no. 1, 25 mg/kg i.v., 48-72 hr)?
Answer: 0.4 % OF THE ADMINISTERED DOSE

Question: And the Cumulative urinary elimination ([1]; monkey no. 1, 200 mg/kg per os, 0-24 hr)?
Answer: 38.4 % OF THE ADMINISTERED DOSE

Question: What about the Cumulative urinary elimination ([1]; monkey no. 1, 200 mg/kg per os, 0-72 hr) of the same compound?
Answer: 45.3 % OF THE ADMINISTERED DOSE

Question: And the Cumulative urinary elimination ([1]; monkey no. 1, 200 mg/kg per os, 24-48 hr)?
Answer: 6.2 % OF THE ADMINISTERED DOSE

Question: What about the Cumulative urinary elimination ([1]; monkey no. 1, 200 mg/kg per os, 48-72 hr) of the same compound?
Answer: 0.7 % OF THE ADMINISTERED DOSE

Question: And the Cumulative urinary elimination ([1]; monkey no. 1, 400 mg/kg per os, 0-24 hr)?
Answer: 24.7 % OF THE ADMINISTERED DOSE

Question: What about the Cumulative urinary elimination ([1]; monkey no. 1, 400 mg/kg per os, 0-72 hr) of the same compound?
Answer: 31.3 % OF THE ADMINISTERED DOSE

Question: And the Cumulative urinary elimination ([1]; monkey no. 1, 400 mg/kg per os, 24-48 hr)?
Answer: 6.0 % OF THE ADMINISTERED DOSE

Question: And the Cumulative urinary elimination ([1]; monkey no. 1, 400 mg/kg per os, 48-72 hr)?
Answer: 0.6 % OF THE ADMINISTERED DOSE

Question: And the Cumulative urinary elimination ([1]; monkey no. 2, 25 mg/kg i.v., 0-24 hr)?
Answer: 52.3 % OF THE ADMINISTERED DOSE

Question: And the Cumulative urinary elimination ([1]; monkey no. 2, 25 mg/kg i.v., 0-72 hr)?
Answer: 55.8 % OF THE ADMINISTERED DOSE

Question: And the Cumulative urinary elimination ([1]; monkey no. 2, 25 mg/kg i.v., 24-48 hr)?
Answer: 3.2 % OF THE ADMINISTERED DOSE

Question: And the Cumulative urinary elimination ([1]; monkey no. 2, 25 mg/kg i.v., 48-72 hr)?
Answer: 0.3 % OF THE ADMINISTERED DOSE

Question: What about the Cumulative urinary elimination ([1]; monkey no. 2, 200 mg/kg per os, 0-24 hr) of the same compound?
Answer: 47.1 % OF THE ADMINISTERED DOSE

Question: What about the Cumulative urinary elimination ([1]; monkey no. 2, 200 mg/kg per os, 0-72 hr) of the same compound?
Answer: 49.7 % OF THE ADMINISTERED DOSE

Question: And the Cumulative urinary elimination ([1]; monkey no. 2, 200 mg/kg per os, 24-48 hr)?
Answer: 2.2 % OF THE ADMINISTERED DOSE

Question: And the Cumulative urinary elimination ([1]; monkey no. 2, 200 mg/kg per os, 48-72 hr)?
Answer: 0.4 % OF THE ADMINISTERED DOSE

Question: What about the Cumulative urinary elimination ([1]; monkey no. 2, 400 mg/kg per os, 0-24 hr) of the same compound?
Answer: 37.9 % OF THE ADMINISTERED DOSE

Question: What about the Cumulative urinary elimination ([1]; monkey no. 2, 400 mg/kg per os, 0-72 hr) of the same compound?
Answer: 44.0 % OF THE ADMINISTERED DOSE

Question: What about the Cumulative urinary elimination ([1]; monkey no. 2, 400 mg/kg per os, 24-48 hr) of the same compound?
Answer: 5.2 % OF THE ADMINISTERED DOSE

Question: What about the Cumulative urinary elimination ([1]; monkey no. 2, 400 mg/kg per os, 48-72 hr) of the same compound?
Answer: 0.9 % OF THE ADMINISTERED DOSE

Question: What about the Absorbability [2] of the same compound?
Answer: poor absorbability

Question: And the Plasmatic concentration ([3]; 25 mg/kg i.v., 5')?
Answer: 10561 ± 2620 DPM/ml serum

Question: And the Plasmatic concentration ([3]; 25 mg/kg i.v., 15')?
Answer: 4088 ± 1299 DPM/ml serum

Question: And the Plasmatic concentration ([3]; 25 mg/kg i.v., 30')?
Answer: 2846 ± 877 DPM/ml serum

Question: And the Plasmatic concentration ([3]; 25 mg/kg i.v., 60')?
Answer: 2127 ± 704 DPM/ml serum

Question: What about the Plasmatic concentration ([3]; 25 mg/kg i.v., 2 hr) of the same compound?
Answer: 2397 ± 329 DPM/ml serum

Question: What about the Plasmatic concentration ([3]; 25 mg/kg i.v., 4 hr) of the same compound?
Answer: 3064 ± 431 DPM/ml serum

Question: And the Plasmatic concentration ([3]; 25 mg/kg i.v., 7 hr)?
Answer: 3566 ± 631 DPM/ml serum

Question: And the Plasmatic concentration ([3]; 25 mg/kg i.v., 24 hr)?
Answer: 2035 ± 315 DPM/ml serum

Question: And the Plasmatic concentration ([3]; 25 mg/kg i.v., 30 hr)?
Answer: 1947 ± 280 DPM/ml serum

Question: And the Plasmatic concentration ([3]; 200 mg/kg per os, 15')?
Answer: 61 DPM/ml serum

Question: What about the Plasmatic concentration ([3]; 200 mg/kg per os, 30') of the same compound?
Answer: 45 DPM/ml serum

Question: And the Plasmatic concentration ([3]; 200 mg/kg per os, 45')?
Answer: 56 ± 4 DPM/ml serum

Question: What about the Plasmatic concentration ([3]; 200 mg/kg per os, 60') of the same compound?
Answer: 91 ± 4.2 DPM/ml serum

Question: And the Plasmatic concentration ([3]; 200 mg/kg per os, 4 hr)?
Answer: 154 ± 26 DPM/ml serum

Question: What about the Plasmatic concentration ([3]; 200 mg/kg per os, 7 hr) of the same compound?
Answer: 774 ± 110 DPM/ml serum

Question: What about the Plasmatic concentration ([3]; 200 mg/kg per os, 9 hr) of the same compound?
Answer: 669 ± 105 DPM/ml serum

Question: What about the Plasmatic concentration ([3]; 200 mg/kg per os, 24 hr) of the same compound?
Answer: 378 ± 55 DPM/ml serum

Question: And the Plasmatic concentration ([3]; 200 mg/kg per os, 30 hr)?
Answer: 344 ± 58 DPM/ml serum

Question: And the Plasmatic concentration ([3]; 400 mg/kg per os, 30')?
Answer: 35 DPM/ml serum

Question: And the Plasmatic concentration ([3]; 400 mg/kg per os, 60')?
Answer: 61 ± 12 DPM/ml serum

Question: What about the Plasmatic concentration ([3]; 400 mg/kg per os, 90') of the same compound?
Answer: 40 ± 16 DPM/ml serum

Question: What about the Plasmatic concentration ([3]; 400 mg/kg per os, 2 hr) of the same compound?
Answer: 78 ± 4.2 DPM/ml serum

Question: And the Plasmatic concentration ([3]; 400 mg/kg per os, 3 hr)?
Answer: 181 ± 9.2 DPM/ml serum

Question: And the Plasmatic concentration ([3]; 400 mg/kg per os, 4 hr)?
Answer: 448 ± 66 DPM/ml serum

Question: And the Plasmatic concentration ([3]; 400 mg/kg per os, 6 hr)?
Answer: 1496 ± 134 DPM/ml serum

Question: And the Plasmatic concentration ([3]; 400 mg/kg per os, 7 hr)?
Answer: 2636 ± 107 DPM/ml serum

Question: And the Plasmatic concentration ([3]; 400 mg/kg per os, 8 hr)?
Answer: 4163 ± 101 DPM/ml serum
